Results taken from patent US20150167016A1, “Plants Tolerant to HPPD Inhibitor Herbicides” (Bayer CropScience AG, priority 2009, published 2015).
Values joined by “and” are separate entries in the source; they are usually repeats but may differ in a detail not shown here. Equal entries are not always repeated. Where two headings read alike, the source gives them in different places.

Assays:
(UniProt Q6KZ98) = test: biochemical; assay type: biochemical, Picrophilus torridus; details: read-out: pI50 (converted)
[1] = tested on: Picrophilus torridus HPPD "SEQ ID No. 5"; test: biochemical; assay type: biochemical
Wild type tobacco plants [2] = test: Glasshouse response to bicyclopyrone, injury classes; assay type: in vivo, Nicotiana tabacum; details: WT; 100 g Al/ha, 7 DAT
Excerpt: (§1) Seeds of wild type tobacco plants and T1 tobacco plants carrying the gene from Picrophilus torridus FMP29e coding for HPPD were sown on MS media (Murashige and Skoog […]) supplemented with […] kanamycin. After 4 weeks, rooted green plantlets were transferred to soil and grown for 3 weeks in the glasshouse as described above then sprayed with a mixture containing bicyclopyrone (100 g Al/ha), ammonium sulfate and methyl ester raps oil. The plants were classified in two categories based on the phenotype developed in response to the herbicide seven days after the treatment. […] In this case, only plants containing at least one T-DNA were exposed to the herbicidal treatment.

[3] = tested on: T1 tobacco plants carrying FMP29e from Picrophilus torridus; test: as above; assay type: in vivo, Nicotiana tabacum; details: 100 g Al/ha, 7 DAT
Excerpt: as §1

Wild type tobacco plants [4] = test: Glasshouse spray trial, herbicidal damage; assay type: in vivo, Nicotiana tabacum; details: individual plants, 100% = same bleaching as wild type
Procedure: (§2) T0 Tobacco plants containing either the gene from Arabidopsis coding for HPPD or the gene FMP29e from Picrophilus torridus coding for FMP29 HPPD, mentioned above (Example3), were transferred to the glasshouse (28/20° C.), to develop further and produce seeds. Those seeds were harvested and put on soil (ED73 mixed with sand and osmocote Pro) to germinate in the glasshouse (28/20° C.). Three to four weeks later, plantlets were transferred to single pots containing the soil mentioned above. Two weeks later, plants of a size 4-6 cm diameter were sprayed with either • tembotrione at 100 gAl/ha prepared from a WP20 (wettable powder 20%) formulation supplemented with ammonium sulfate and methyl ester raps oil, or • isoxaflutole at 100 gAl/ha prepared from a WP20 formulation supplemented with ammonium sulfate and methyl ester raps oil, or • bicyclopyrone at 100 gAl/ha prepared from a WP20 formulation supplemented with ammonium sulfate and methyl ester raps oil, or • “blind formulation” made from a WP20 formulation without active ingredient (Al) supplemented with ammonium sulfate and methyl ester raps oil, and were then transferred to a growth chamber with adequate light conditions (20000 Lux).
(§3) Table 5: Wild type tobacco plants (A) and Ti populations of tobacco events containing alternatively, the expression cassettes described above having the promoter CaMV 35S, the sequence coding for OTP and the sequence coding for Arabidopsis HPPD (B) or the promoter CaMV35S, the sequence encoding OTP, and the sequence FMP29e coding for the HPPD FMP29 (C). Assessments of herbicidal damage at 7 days after application (DAT) per spray with 100 g Al/ha of tembotrione or isoxaflutole supplemented with ammonium sulfate and methyl ester raps oil. […] Plants belonging to categories (B) and (C) have not been selected for the presence of the respective transgene prior to the herbicide application.

[5] = tested on: T1 tobacco plants containing FMP29e (Picrophilus torridus HPPD FMP29); test: Glasshouse spray trial, herbicidal damage; assay type: in vivo, Nicotiana tabacum; details: for tolerance of plants containing FMP29e gene: 7 DAT, 100 g Al/ha spray; for % injury, 7DAT, 100 g Al/ha: FMP29e, not selected for transgene
Procedure: as §2, §3

[6] = tested on: T1 tobacco plants containing Arabidopsis HPPD; test: Glasshouse spray trial, herbicidal damage; assay type: in vivo, Nicotiana tabacum; details: not selected for transgene
Procedure: as §2, §3

[7] = biological target: T1, Arabidopsis thaliana HPPD "SEQ ID No. 10" (Arabidopsis thaliana, UniProt P93836); test: HPPD activity in presence of HPPD inhibitors (spectrophotometric assay of WO 2009/144079); assay type: biochemical
T1 construct: made in house; host or cells: E. coli K-12 BL21 (pQE30-AtHPPD)
T1 sequence (P93836 with tags, fused parts or gaps): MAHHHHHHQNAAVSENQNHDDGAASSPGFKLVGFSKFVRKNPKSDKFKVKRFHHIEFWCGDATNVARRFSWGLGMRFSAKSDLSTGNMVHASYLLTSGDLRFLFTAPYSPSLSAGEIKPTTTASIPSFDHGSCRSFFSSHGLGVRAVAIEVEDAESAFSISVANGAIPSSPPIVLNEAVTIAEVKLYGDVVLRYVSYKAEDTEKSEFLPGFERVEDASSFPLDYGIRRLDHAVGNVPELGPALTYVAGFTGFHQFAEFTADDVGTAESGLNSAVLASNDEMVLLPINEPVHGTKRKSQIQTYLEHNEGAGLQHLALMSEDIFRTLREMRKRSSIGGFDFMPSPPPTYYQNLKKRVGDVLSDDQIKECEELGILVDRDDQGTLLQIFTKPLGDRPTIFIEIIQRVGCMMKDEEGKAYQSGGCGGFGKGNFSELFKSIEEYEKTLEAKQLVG

[8] = tested on: tobacco calli containing HPPD SEQ ID No. 7 (Picrophilus torridus); test: Rooting of calli on media with tembotrione; assay type: cell-based, Nicotiana tabacum; details: calli containing SEQ ID No. 7, 6 to 12 weeks
Procedure: (§4) The leaf disks were co-cultivated for 2 days with Agrobacterium tumefaciens cells containing either the binary vector FMP29ebv or AtHPPDbv. Then the leaf disks were transferred to a media allowing the regeneration of shoots for 6 weeks on MS (Musharige and Skoog, (1962), Physiol Plant 15(3): 473-497) media supplemented with BAP (1 mg/mL; Benzylaminopurine), carbenicillin (250 mg/mL), cefotaxine (250 mg/mL), kanamycin (75 mg/mL) and tembotrione (10^−6 M) Regenerated calli were transferred on media to induce the development of roots for 6 to 12 weeks: MS (½), supplemented with carbenicillin (250 mg/mL), cefotaxine (250 mg/mL), kanamycin (75 mg/mL), and tembotrione (10^−6 M).
(§5) Regenerated shoot calli from a cell transformed with a nucleic acid sequence encoding an HPPD comprising SEQ ID No. 11 (Arabidopsis thaliana) or SEQ ID No. 7 (Picrophilus torridus) were transferred to a media inducing root growth which media was further supplemented with the HPPD inhibitor tembotrione for 6 to 12 weeks.

[9] = tested on: tobacco calli containing HPPD SEQ ID No. 11 (Arabidopsis thaliana); test: Rooting of calli on media with tembotrione; assay type: cell-based, Nicotiana tabacum; details: calli containing SEQ ID No. 11; 6 to 12 weeks
Procedure: as §4, §5

[10] = SEQ ID No. 5, 5.0 × 10^−6M inhibitor
[11] = FMP29e line 121, plants with at least one T-DNA
[12] = SEQ ID No. 5, 2 mM HPP, 3 minutes incubation, >> = far higher than indicated, not calculable in tested range 2.5 × 10^−6 to 2.5 × 10^−4M

With `Cc1ccc(C(=O)COc2c(C(=O)c3ccc(Cl)c(C)c3Cl)c(C)nn2C)cc1` [Benzofenap] the IC50 ((UniProt Q6KZ98)) was 15.8 µM and the “percentage of inhibition compared to the activity measured in absence of the inhibitor” value (“percentage of inhibition” for short) [1, 10] was 44%.

`COCCOCc1nc(C(F)(F)F)ccc1C(=O)C1=C(O)C2CCC(C2)C1=O` (centres unmarked) [Bicyclopyrone, 4-hydroxy-3-[[2-[(2-methoxyethoxy)methyl]-6-(trifluoromethyl)-3-pyridinyl]carbonyl]bicyclo[3.2.1]oct-3-en-2-one] was tested, and the “% of tolerant plant” value (Wild type tobacco plants [2]) was 0%, the “Class I (number of plants, injury: 0-30%)” value (Wild type tobacco plants [2]) was 0 and the “Class II (number of plants, injury: 31-100%)” value (Wild type tobacco plants [2]) was 12. The “tolerance of plants containing the HPPD FMP29” value [3] was “displayed tolerance”, the “% of tolerant plant” value ([3]; FMP29e line 121) was 2% and the “Class I (number of plants, injury: 0-30%)” value [3, 11] was 38. For the same compound, the “Class II (number of plants, injury: 31-100%)” value [3, 11] was 11, the IC50 ((UniProt Q6KZ98)) was 398 µM and the “percentage of inhibition” value [1, 10] was 24%.

`CS(=O)(=O)c1cc(C(F)(F)F)ccc1C(=O)C(C#N)C(=O)C1CC1` (centres unmarked) [Diketonitrile, 2-cyano-3-cyclopropyl-1-(2-methylsulphonyl-4-trifluoromethylphenyl)-propane-1,3-dione] was tested, and the IC50 ((UniProt Q6KZ98)) was 12.6 µM and the “percentage of inhibition” value [1, 10] was 26%.

`CS(=O)(=O)c1cc(C(F)(F)F)ccc1C(=O)c1cnoc1C1CC1` [Isoxaflutole, (5-cyclopropyl-4-isoxazolyl)[2-(methylsulfonyl)-4-(trifluoromethyl)phenyl]methanone] was tested, and the “% injury, 7DAT, 100 g Al/ha” value (Wild type tobacco plants [4]) was 98% and 99% (2×) and 100% (4×), the “tolerance of plants containing FMP29e gene” value [5] was “far more tolerant” and the “% injury, 7DAT, 100 g Al/ha” value ([5]; line 115, individual T1 plants) was 0% and 2% and 5% and 10% and 15% and 30% (2×) and 40%. The “% injury, 7DAT, 100 g Al/ha” value ([5]; line 292, individual T1 plants) was 20% and 30% and 40%, the “% injury, 7DAT, 100 g Al/ha” value ([6]; line 252, individual T1 plants) was 30% and 70% and 95% and 98% (2×) and 99% (4×) and 100% (4×) and the “% injury, 7DAT, 100 g Al/ha” value ([6]; line 258, individual T1 plants) was 100%. For the same compound, the “% injury, 7DAT, 100 g Al/ha” value ([6]; line 327, individual T1 plants) was 10% and 20% and 60% (2×) and 70% and 80% and 95% and 98% and 99% and 100% (6×).

With `CS(=O)(=O)c1ccc(C(=O)C2C(=O)CCCC2=O)c([N+](=O)[O-])c1` [Mesotrione, 2-[4-(methylsulfonyl)-2-nitrobenzoyl]-1,3-cyclohexanedione] the “percentage of inhibition” value [1] was 84%.

`Cc1nn(C)c(O)c1C(=O)c1ccc(C(F)(F)F)cc1S(C)(=O)=O` [Pyrasulfotole] was tested, and the pI50 ([7]; 2 mM HPP, 3 minutes incubation, >> = far higher than indicated, not calculable in tested range 2.5 × 10^−6 to 2.5 × 10^−4M) was 5.4, the “percentage of inhibition” value ([7]; 5.0 × 10^−6M inhibitor) was 69% and the pI50 [1, 12] was 4.0. For the same compound, the “percentage of inhibition” value [1, 10] was 7%.

For `CS(=O)(=O)c1ccc(C(=O)C2C(=O)CCCC2=O)c(Cl)c1` [Sulcotrione, 2-[2-chloro-4-(methylsulfonyl)benzoyl]-1,3-cyclohexanedione], the pI50 [1] was >5.6 and the “percentage of inhibition” value [1] was 92%.

`CS(=O)(=O)c1ccc(C(=O)C2C(=O)CCCC2=O)c(Cl)c1COCC1CCCO1` (centres unmarked) [Tefuryltrione, 2-[2-chloro-4-(methylsulfonyl)-3-[[(tetrahydro-2-furanyl)methoxy]methyl]benzoyl]-1,3-cyclohexanedione] was tested, and the IC50 ((UniProt Q6KZ98)) was 3.16 µM and the “percentage of inhibition” value [1, 10] was 87. %.

`CS(=O)(=O)c1ccc(C(=O)C2C(=O)CCCC2=O)c(Cl)c1COCC(F)(F)F` [Tembotrione, 2-[2-chloro-4-(methylsulfonyl)-3-[(2,2,2,-tri-fluoroethoxy)methyl]benzoyl]-1,3-cyclo-hexanedione] was tested, and the “% injury, 7DAT, 100 g Al/ha” value (Wild type tobacco plants [4]) was 100%, the “tolerance of plants containing FMP29e gene” value [5] was “far more tolerant” and the “% injury, 7DAT, 100 g Al/ha” value ([5]; line 115, individual T1 plants) was 30% and 40% and 50% (3×). The “% injury, 7DAT, 100 g Al/ha” value ([5]; line 292, individual T1 plants) was 20% (2×) and 30% and 40% (2×), the “% injury, 7DAT, 100 g Al/ha” value ([6]; line 252, individual T1 plants) was 30% and 40% (3×) and 50% and 60% (2×) and 70% (2×) and 75% (3×) and 80% and the “% injury, 7DAT, 100 g Al/ha” value ([6]; line 258, individual T1 plants) was 100% (5×) and 30%. The “% injury, 7DAT, 100 g Al/ha” value ([6]; line 327, individual T1 plants) was 10% and 20% (2×) and 40% and 50% and 0% and 70% (5×) and 80% (4×), the pI50 [1, 12] was 5.5 and the “percentage of inhibition” value [1, 10] was 58%. For the same compound, the “root growth on media supplemented with tembotrione” value [8] was “developed numerous and healthy roots”, the “% Elongation & rooting on 10^−6M tembotrione” value ([8]; 10^−6M) was 65% and the “root growth on media supplemented with tembotrione” value [9] was “On none of the events”.
